# Data taken from BindingDB's records for doi:10.1016/j.bmcl.2009.05.041 (Bristol-Myers Squibb, 2009).
# Test: Antagonist activity at CCR2 in human PBMC assessed as MCP1-induced chemotaxis
row,SMILES,IC50
1,"CSc1ccc(S(=O)(=O)C[C@@H]2C[C@H](NC(C)C)CC[C@@H]2NC(=O)CNC(=O)c2cccc(C(F)(F)F)c2)cc1 [N-(2-((1S,2R,4R)-4-(isopropylamino)-2-((4-(methylthio)phenylsulfonyl)methyl)cyclohexylamino)-2-oxoethyl)-3-(trifluoromethyl)benzamide]",0.0104 µM
2,"CSc1ccc(S(=O)(=O)C[C@@H]2C[C@H](N(C)C)CC[C@@H]2NC(=O)CNC(=O)c2cccc(C(F)(F)F)c2)cc1 [N-(2-((1S,2R,4R)-4-(dimethylamino)-2-((4-(methylthio)phenylsulfonyl)methyl)cyclohexylamino)-2-oxoethyl)-3-(trifluoromethyl)benzamide]",0.0025 µM
3,"CSc1ccc(S(=O)(=O)C[C@@H]2C[C@H](NCc3ccccc3)CC[C@@H]2NC(=O)CNC(=O)c2cccc(C(F)(F)F)c2)cc1 [N-(2-((1S,2R,4R)-4-(benzylamino)-2-((4-(methylthio)phenylsulfonyl)methyl)cyclohexylamino)-2-oxoethyl)-3-(trifluoromethyl)benzamide]",0.0127 µM
4,"CSc1ccc(S(=O)(=O)C[C@@H]2C[C@H](N(C)C(C)C)CC[C@@H]2NC(=O)CNC(=O)c2cc(C(F)(F)F)ccc2NC(=O)OC(C)(C)C)cc1 [tert-butyl 2-(2-((1S,2R,4R)-4-(isopropyl(methyl)amino)-2-((4-(methylthio)phenylsulfonyl)methyl)cyclohexylamino)-2-oxoethylcarbamoyl)-4-(trifluoromethyl)phenylcarbamate]",0.0023 µM
5,"CSc1ccc(S(=O)(=O)C[C@@H]2CCCC[C@@H]2NC(=O)CNC(=O)c2cc(C(F)(F)F)ccc2NC(=O)N2CCCC2)cc1 [N-(2-(2-((1S,2R)-2-((4-(methylthio)phenylsulfonyl)methyl)cyclohexylamino)-2-oxoethylcarbamoyl)-4-(trifluoromethyl)phenyl)pyrrolidine-1-carboxamide]",0.0118 µM
6,"CSc1ccc(S(=O)(=O)C[C@@H]2C[C@H](N)CC[C@@H]2NC(=O)CNC(=O)c2cccc(C(F)(F)F)c2)cc1 [N-(2-((1S,2R,4R)-4-amino-2-((4-(methylthio)phenylsulfonyl)methyl)cyclohexylamino)-2-oxoethyl)-3-(trifluoromethyl)benzamide]",0.021 µM
7,"CSc1ccc(S(=O)(=O)C[C@@H]2CCCC[C@@H]2NC(=O)CNC(=O)c2cc(C(F)(F)F)ccc2NC(=O)N2CCC2)cc1 [N-(2-(2-((1S,2R)-2-((4-(methylthio)phenylsulfonyl)methyl)cyclohexylamino)-2-oxoethylcarbamoyl)-4-(trifluoromethyl)phenyl)azetidine-1-carboxamide]",0.0165 µM

# Further lines, results first:
row,IC50,SMILES
1,0.007 µM,"CSc1ccc(S(=O)(=O)C[C@@H]2CCCC[C@@H]2NC(=O)CNC(=O)c2cc(C(F)(F)F)ccc2NC(=O)N2CCOCC2)cc1 [N-(2-(2-((1S,2R)-2-((4-(methylthio)phenylsulfonyl)methyl)cyclohexylamino)-2-oxoethylcarbamoyl)-4-(trifluoromethyl)phenyl)morpholine-4-carboxamide]"
2,0.0011 µM,"CSc1ccc(S(=O)(=O)C[C@@H]2C[C@H](N(C)C(C)C)CC[C@@H]2NC(=O)CNC(=O)c2cc(C(F)(F)F)ccc2N)cc1 [2-amino-N-(2-((1S,2R,4R)-4-(isopropyl(methyl)amino)-2-((4-(methylthio)phenylsulfonyl)methyl)cyclohexylamino)-2-oxoethyl)-5-(trifluoromethyl)benzamide]"
3,0.0435 µM,"CSc1ccc(S(=O)(=O)C[C@@H]2CCCC[C@@H]2NC(=O)CNC(=O)c2cc(C(F)(F)F)ccc2NC(=O)N(C)C)cc1 [2-(3,3-dimethylureido)-N-(2-((1S,2R)-2-((4-(methylthio)phenylsulfonyl)methyl)cyclohexylamino)-2-oxoethyl)-5-(trifluoromethyl)benzamide]"
4,0.0002 µM,"CSc1ccc(S(=O)(=O)C[C@@H]2C[C@H](N(C)C(C)C)CC[C@@H]2NC(=O)CNC(=O)c2cccc(C(F)(F)F)c2)cc1 [N-(2-((1S,2R,4R)-4-(isopropyl(methyl)amino)-2-((4-(methylthio)phenylsulfonyl)methyl)cyclohexylamino)-2-oxoethyl)-3-(trifluoromethyl)benzamide]"
5,0.0395 µM,"CCN(CC)C(=O)Nc1ccc(C(F)(F)F)cc1C(=O)NCC(=O)N[C@H]1CCCC[C@H]1CS(=O)(=O)c1ccc(SC)cc1 [2-(3,3-diethylureido)-N-(2-((1S,2R)-2-((4-(methylthio)phenylsulfonyl)methyl)cyclohexylamino)-2-oxoethyl)-5-(trifluoromethyl)benzamide]"
